Measured values: US20260285875A1, “INHIBITORS OF PARG” (858 Therapeutics, Inc., priority 2023, published 2026)

Molecular target: T1, cellular PARG (Homo sapiens, UniProt Q86W56)
T1 construct: endogenous in cells; host or cells: HeLa
Test: Nuclear PAR accumulation assay (immunofluorescence high-content imaging, MMS-treated HeLa cells)
Format: cell-based
Settings: 1 hour compound then MMS 50 μg/mL for an additional hour
Method: HeLa cells were plated at 15,000 cells/well in a 96-well plate the day before compound treatment and then treated with varying concentrations of test compound and incubated for 1 hour at 37° C.+5% CO2. Following test compound treatment, methylmethane sulfonate (MMS) was added to a final concentration of 50 μg/mL and the cells were incubated for an additional hour. Following treatment, the cells were fixed with ice cold 95% methanol and the plates sealed and placed at -20° C. for 15 minutes. The cells were then washed once with phosphate buffered saline (PBS) and permeabilized with 0.10% Triton-X 100 for 20 minutes at room temperature. […] The cells were then washed three times with PBS before incubation with a fluorescently conjugated goat anti-mouse antibody (Invitrogen A32723) diluted 1:500 in 5% FBS+0.1% Tween-20+PBS for 1 hour at room temperature. The cells were again washed three times with PBS and the nuclei labeled by incubating with 1 μg/mL DAPI (4′,6-diamidino-2-phenylindole). Nuclear PAR accumulation was evaluated using high-content fluorescence microscopy. Four fields for each well were acquired at 20× magnification resulting in at least 1,000 cells analyzed per well. […] Both the average intensity per nucleus and percent PAR positive cells were quantified. […] Concentration-response-curves and IC50 values were generated using four parameter logistic curve fit software.
Representative data for exemplary compounds is presented in Table 32, Table 33 and Table 34.

T1 sequence (Q86W56 whole entry): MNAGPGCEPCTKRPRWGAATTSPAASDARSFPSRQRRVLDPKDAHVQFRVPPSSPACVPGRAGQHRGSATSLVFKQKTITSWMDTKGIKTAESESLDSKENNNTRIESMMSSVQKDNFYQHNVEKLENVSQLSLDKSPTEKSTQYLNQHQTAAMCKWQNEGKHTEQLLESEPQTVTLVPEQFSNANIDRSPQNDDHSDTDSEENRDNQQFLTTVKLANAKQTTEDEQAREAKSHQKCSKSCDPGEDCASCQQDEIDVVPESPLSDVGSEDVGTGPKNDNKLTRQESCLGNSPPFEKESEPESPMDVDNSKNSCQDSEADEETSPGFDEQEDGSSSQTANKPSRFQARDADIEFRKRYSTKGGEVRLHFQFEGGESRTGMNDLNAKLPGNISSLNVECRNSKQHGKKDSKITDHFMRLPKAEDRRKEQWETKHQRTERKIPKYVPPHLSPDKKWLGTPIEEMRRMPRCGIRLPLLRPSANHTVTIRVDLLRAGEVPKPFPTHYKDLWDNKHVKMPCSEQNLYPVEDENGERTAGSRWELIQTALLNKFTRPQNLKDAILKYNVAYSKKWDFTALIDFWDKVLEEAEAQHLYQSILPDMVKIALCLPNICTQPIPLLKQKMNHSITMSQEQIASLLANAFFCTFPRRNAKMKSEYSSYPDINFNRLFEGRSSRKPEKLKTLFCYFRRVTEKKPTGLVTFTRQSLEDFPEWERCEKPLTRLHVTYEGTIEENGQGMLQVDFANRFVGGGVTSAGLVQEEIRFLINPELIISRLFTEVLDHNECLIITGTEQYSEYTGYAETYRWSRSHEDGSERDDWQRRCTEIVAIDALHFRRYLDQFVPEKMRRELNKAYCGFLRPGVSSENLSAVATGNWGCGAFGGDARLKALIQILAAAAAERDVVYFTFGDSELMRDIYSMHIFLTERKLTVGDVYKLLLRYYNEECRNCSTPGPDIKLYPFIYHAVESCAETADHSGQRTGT

Row | SMILES | IC50 [nM]
1 | [2H]C([2H])(c1cnn(C)c1)N1C(=O)c2cc(S(=O)(=O)NC3(C)CC3)cc(Cl)c2N2C1=NC[C@@H]2C#CC1CC1 [Example 92, (S)-9-chloro-1-(cyclopropylethynyl)-4-((1-methyl-1H-pyrazol-4-yl)methyl-d2)-N-(1-methylcyclopropyl)-5-oxo-1,2,4,5-tetrahydroimidazo[1,2-a]quinazoline-7-sulfonamide] | 100 to 1000
2 | Cn1cc(CN2C(=O)c3cc(S(=O)(=O)NC4(C)CC4)cc(Cl)c3N3C2=NC[C@H]3C#CCN)cn1 [Example 103, (R)-1-(3-aminoprop-1-yn-1-yl)-9-chloro-4-((1-methyl-1H-pyrazol-4-yl)methyl)-N-(1-methylcyclopropyl)-5-oxo-1,2,4,5-tetrahydroimidazo[1,2-a]quinazoline-7-sulfonamide] | 100 to 1000
3 | C[C@@H]1CN=C2N(C)C(=O)c3cc(S(=O)(=O)NC4(C)CC4)cc(N4CCN(C(=O)N(C)C)CC4)c3N21 [Example 33, (R)-4-(1,4-dimethyl-7-(N-(1-methylcyclopropyl)sulfamoyl)-5-oxo-1,2,4,5-tetrahydroimidazo[1,2-a]quinazolin-9-yl)-N,N-dimethylpiperazine-1-carboxamide] | < 100
4 | C[C@@H]1CN=C2N(Cc3cn(C)nc3C3CC3)C(=O)c3cc(S(=O)(=O)NC4(C)CC4)ccc3N21 [Example 230, (R)-4-((3-cyclopropyl-1-methyl-1H-pyrazol-4-yl)methyl)-1-methyl-N-(1-methylcyclopropyl)-5-oxo-1,2,4,5-tetrahydroimidazo[1,2-a]quinazoline-7-sulfonamide] | < 100
5 | C[C@@H]1CCN=C2N(c3nnc(C(F)F)s3)c3cc(S(=O)(=O)NC4(C)CC4)ccc3N21 [Example 85] | < 100
6 | C#CCn1cc(CN2C(=O)c3cc(S(=O)(=O)NC4(C)CC4)ccc3N3C2=NC[C@H]3C)cn1 [Example 162, (R)-1-methyl-N-(1-methylcyclopropyl)-5-oxo-4-((1-(prop-2-yn-1-yl)-1H-pyrazol-4-yl)methyl)-1,2,4,5-tetrahydroimidazo[1,2-a]quinazoline-7-sulfonamide] | < 100
7 | CN(C)C1([C@@H]2CN=C3N(Cc4cnn(C)c4)C(=O)c4cc(S(=O)(=O)NC5(C)CC5)ccc4N32)CC1 [Example 270, (S)-1-(1-(dimethylamino)cyclopropyl)-4-((1-methyl-1H-pyrazol-4-yl)methyl)-N-(1-methylcyclopropyl)-5-oxo-1,2,4,5-tetrahydroimidazo[1,2-a]quinazoline-7-sulfonamide] | < 100
8 | CNC(=O)c1ccc(-c2cc(S(=O)(=O)NC3(C)CC3)cc3c2N2C(=N[C@H]4CCC[C@H]42)N(C)C3=O)cn1 [Example 50, N-methyl-5-((7aS,10aR)-6-methyl-3-(N-(1-methylcyclopropyl)sulfamoyl)-5-oxo-6,7a,8,9,10,10a-hexahydro-5H-cyclopenta[4,5]imidazo[1,2-a]quinazolin-1-yl)picolinamide] | 100 to 1000
9 | Cn1cc(CN2C(=O)c3cc(S(=O)(=O)NC4(C)CC4)ccc3N3C2=NC[C@H]3C2CCCC2)cn1 [Example 48, (R)-1-cyclopentyl-4-((1-methyl-1H-pyrazol-4-yl)methyl)-N-(1-methylcyclopropyl)-5-oxo-1,2,4,5-tetrahydroimidazo[1,2-a]quinazoline-7-sulfonamide] | < 100

Further lines, results first:

Row | IC50 [nM] | SMILES
10 | < 100 | [2H]C([2H])(c1cnn(C)c1)N1C(=O)c2cc(S(=O)(=O)NC3(C)CC3)ccc2N2C1=NC[C@H]2C#Cc1ncc(C)nc1C [Example 251, (R)-1-((3,5-dimethylpyrazin-2-yl)ethynyl)-4-((1-methyl-1H-pyrazol-4-yl)methyl-d2)-N-(1-methylcyclopropyl)-5-oxo-1,2,4,5-tetrahydroimidazo[1,2-a]quinazoline-7-sulfonamide]
11 | < 100 | [2H]C([2H])(c1cnn(C)c1)N1C(=O)c2cc(S(=O)(=O)NC3(C)CC3)ccc2N2C1=NC[C@H]2C#Cc1cccc(N)n1 [Example 104, (R)-1-((6-aminopyridin-2-yl)ethynyl)-4-((1-methyl-1H-pyrazol-4-yl)methyl-d2)-N-(1-methylcyclopropyl)-5-oxo-1,2,4,5-tetrahydroimidazo[1,2-a]quinazoline-7-sulfonamide]
12 | < 100 | CN1C(=O)c2cc(S(=O)(=O)NC3(C)CC3)ccc2N2C1=NC[C@H]2C#Cc1cnc2ccc(C#N)nn12 [Example 180, (R)-1-((6-cyanoimidazo[1,2-b]pyridazin-3-yl)ethynyl)-4-methyl-N-(1-methylcyclopropyl)-5-oxo-1,2,4,5-tetrahydroimidazo[1,2-a]quinazoline-7-sulfonamide]
13 | < 100 | CN1C(=O)c2cc(S(=O)(=O)NC3(C)CC3)ccc2N2C1=NCC2C#Cc1ccnc(F)c1 (stereo not shown) [Example 224, 1-((2-fluoropyridin-4-yl)ethynyl)-4-methyl-N-(1-methylcyclopropyl)-5-oxo-1,2,4,5-tetrahydroimidazo[1,2-a]quinazoline-7-sulfonamide]
14 | < 100 | Cn1ncc(C#C[C@@H]2CN=C3N(Cc4cnn5c4CNCC5)C(=O)c4cc(S(=O)(=O)NC5(C)CC5)ccc4N32)n1 [Example 288, (R)-1-((2-methyl-2H-1,2,3-triazol-4-yl)ethynyl)-N-(1-methylcyclopropyl)-5-oxo-4-((4,5,6,7-tetrahydropyrazolo[1,5-a]pyrazin-3-yl)methyl)-1,2,4,5-tetrahydroimidazo[1,2-a]quinazoline-7-sulfonamide]
15 | < 100 | Cc1cc(C#C[C@@H]2CN=C3N(Cc4cnn(C)c4)C(=O)c4cc(S(=O)(=O)NC5(C)CC5)ccc4N32)n(C)n1 [Example 192, (R)-1-((1,3-dimethyl-1H-pyrazol-5-yl)ethynyl)-4-((1-methyl-1H-pyrazol-4-yl)methyl)-N-(1-methylcyclopropyl)-5-oxo-1,2,4,5-tetrahydroimidazo[1,2-a]quinazoline-7-sulfonamide]
16 | < 100 | [2H]C([2H])(c1cnn(C)c1)N1C(=O)c2cc(S(=O)(=O)NC3(C)CC3)ccc2N2C1=NC[C@H]2C#Cc1cncc(OC)c1 [Example 269, (R)-1-((5-methoxypyridin-3-yl)ethynyl)-4-((1-methyl-1H-pyrazol-4-yl)methyl-d2)-N-(1-methylcyclopropyl)-5-oxo-1,2,4,5-tetrahydroimidazo[1,2-a]quinazoline-7-sulfonamide]
17 | < 100 | Cc1cc(C#C[C@@H]2CN=C3N(Cc4cnn(C)c4)C(=O)c4cc(S(=O)(=O)NC5(C)CC5)ccc4N32)ccn1 [Example 238, (R)-4-((1-methyl-1H-pyrazol-4-yl)methyl)-N-(1-methylcyclopropyl)-1-((2-methylpyridin-4-yl)ethynyl)-5-oxo-1,2,4,5-tetrahydroimidazo[1,2-a]quinazoline-7-sulfonamide]
18 | < 100 | [2H]C([2H])(c1cnn(C)c1)N1C(=O)c2cc(S(=O)(=O)NC3(C)CC3)ccc2N2C1=NC[C@H]2C#Cc1cnn(C)n1 [Example 163, (R)-4-((1-methyl-1H-pyrazol-4-yl)methyl-d2)-1-((2-methyl-2H-1,2,3-triazol-4-yl)ethynyl)-N-(1-methylcyclopropyl)-5-oxo-1,2,4,5-tetrahydroimidazo[1,2-a]quinazoline-7-sulfonamide]
19 | < 100 | Cn1cc(CN2C(=O)c3cc(S(=O)(=O)NC4(C)CC4)ccc3N3C2=NC[C@H]3C#Cc2ncnn2C)cn1 [Example 196, (R)-1-((1-methyl-1H-1,2,4-triazol-5-yl)ethynyl)-4-((1-methyl-1H-pyrazol-4-yl)methyl)-N-(1-methylcyclopropyl)-5-oxo-1,2,4,5-tetrahydroimidazo[1,2-a]quinazoline-7-sulfonamide]
